These results are taken from ChEMBL document CHEMBL4184141, “Investigating the Antibacterial Activity of Biphenylthiazoles against Methicillin- and Vancomycin-Resistant Staphylococcus aureus (MRSA and VRSA)” (J Med Chem, 2017).

Data set [1] has as its system Staphylococcus aureus. As to the kind of experiment: Antibacterial activity against methicillin-resistant Staphylococcus aureus 2658 RCMB up to 20 hrs by broth microdilution assay. The data set is classed as functional. In general terms: Broth dilution looks for growth in wells or tubes with falling amounts of substance.
In data set [2] the test system is Staphylococcus aureus. As to the kind of experiment: Antibacterial activity against Staphylococcus aureus RN4220 up to 20 hrs by broth microdilution assay. The data set is classed as functional. As to conditions: RN4220, 20 h.
Data set [3] relates to Staphylococcus aureus. As to the kind of experiment: Antibacterial activity against methicillin-resistant Staphylococcus aureus NRS119 up to 20 hrs by broth microdilution assay. The data set is classed as functional. Particulars: NRS119, 20 h.
Data set [4] relates to Staphylococcus aureus. As to the kind of experiment: Antibacterial activity against methicillin-resistant Staphylococcus aureus USA400 NRS123 up to 20 hrs by broth microdilution assay. The data set is classed as functional. Particulars: USA400 NRS123, 20 h.
Data set [5] relates to Staphylococcus aureus. As to the kind of experiment: Antibacterial activity against vancomycin-resistant Staphylococcus aureus VRS10 up to 20 hrs by broth microdilution assay. The data set is classed as functional. As to conditions: VRS10, 20 h.
Data set [6] deals with Staphylococcus aureus. As to the kind of experiment: Antibacterial activity against vancomycin-resistant Staphylococcus aureus VRS11a up to 20 hrs by broth microdilution assay. It is filed as functional.
Data set [7] deals with Staphylococcus aureus. Nature of the data set: Antibacterial activity against vancomycin-resistant Staphylococcus aureus VRS12 up to 20 hrs by broth microdilution assay. The data set is classed as functional. As to conditions: VRS12, 20 h.
The test system of data set [8] is Enterococcus faecium. As to the kind of experiment: Antibacterial activity against vancomycin-resistant Enterococcus faecium ATCC 700221 up to 20 hrs by broth microdilution assay. The data set is classed as functional. Particulars: ATCC 700221, 20 h.
In data set [9] the test system is Pseudomonas aeruginosa. Nature of the data set: Antibacterial activity against Pseudomonas aeruginosa ATCC 15442 up to 20 hrs by broth microdilution assay. The data set is classed as functional. Particulars: ATCC 15442, 20 h.
For data set [10], the system named is Staphylococcus aureus. Nature of the data set: Bactericidal activity against Staphylococcus aureus RN4220 up to 18 hrs by broth microdilution assay. Particulars: RN4220, 18 h, read-out: MBC99.9. The data set is classed as functional.
The test system of data set [11] is Staphylococcus aureus. As to the kind of experiment: Bactericidal activity against methicillin-resistant Staphylococcus aureus NRS119 up to 18 hrs by broth microdilution assay. The data set is classed as functional. As to conditions: NRS119, 18 h, read-out: MBC99.9.
Data set [12] concerns Staphylococcus aureus. As to the kind of experiment: Bactericidal activity against methicillin-resistant Staphylococcus aureus USA400 NRS123 up to 18 hrs by broth microdilution assay. Particulars: USA400 NRS123, 18 h, read-out: MBC99.9. The data set is classed as functional.
For data set [13], the system named is Staphylococcus aureus. As to the kind of experiment: Bactericidal activity against vancomycin-resistant Staphylococcus aureus VRS10 up to 18 hrs by broth microdilution assay. The data set is classed as functional. As to conditions: VRS10, 18 h, read-out: MBC99.9.
Data set [14] relates to Staphylococcus aureus. Nature of the data set: Bactericidal activity against vancomycin-resistant Staphylococcus aureus VRS11a up to 18 hrs by broth microdilution assay. The data set is classed as functional. Particulars: read-out: MBC99.9.
Data set [15] relates to Staphylococcus aureus. Nature of the data set: Bactericidal activity against vancomycin-resistant Staphylococcus aureus VRS12 up to 18 hrs by broth microdilution assay. It is filed as functional. Particulars: VRS12, 18 h, read-out: MBC99.9.
The subject of data set [16] is Staphylococcus aureus. As to the kind of experiment: Potentiation of vancomycin-induced antibacterial activity against vancomycin-resistant Staphylococcus aureus VRS10 assessed as fold reduction in vancomycin MIC at 0.5 times MIC after 20 to 22 hrs. It is filed as functional.
The test system of data set [17] is Staphylococcus aureus. Nature of the data set: Antibacterial activity against methicillin-resistant Staphylococcus aureus USA300 infected in Caenorhabditis elegans AU37 harboring (sek-1(km4);glp-4(bn2)I) mutant assessed as reduction in bacterial burden at 20 ug/ml after 18 hrs by microscopic analysis relative to control. It is filed as functional. Details: scale not given: the % may be the effect or the level left.

Data set [18] has as its system HRT-18 cell line. As to the kind of experiment: Cytotoxicity against human HRT18 cells up to 64 microg/ml after 6 hrs by MTS assay. It is filed as cell-based. Particulars: hrt-18, 6 h.
For data set [19], the system named is Staphylococcus aureus. As to the kind of experiment: Synergistic antibacterial activity against vancomycin-resistant Staphylococcus aureus VRS10 after 20 hrs in presence of vancomycin by checkerboard assay. It is filed as functional. Particulars: VRS10, 20 h.
Data set [20] deals with Staphylococcus aureus. As to the kind of experiment: Potentiation of vancomycin-induced antibacterial activity against vancomycin-resistant Staphylococcus aureus VRS10 assessed as vancomycin MIC after 20 hrs by checkerboard assay. The data set is classed as functional. As to conditions: VRS10, 20 h.
Data set [21] relates to Staphylococcus aureus. As to the kind of experiment: Potentiation of vancomycin-induced antibacterial activity against vancomycin-resistant Staphylococcus aureus VRS10 assessed as reduction in vancomycin MIC after 20 hrs by checkerboard assay. The data set is classed as functional.
Data set [22] can be described thus: Selectivity index, ratio of cytotoxic concentration for human HRT18 cells to MIC for methicillin-resistant Staphylococcus aureus. The data set is classed as toxicity. Particulars: read-out: Selectivity Index.
Data set [23] relates to Staphylococcus aureus. Nature of the data set: Bactericidal activity against methicillin-resistant Staphylococcus aureus USA300 assessed as time required to reduce bacterial load to 0 at 4 times MIC by time-kill assay. It is filed as functional.
Data set [24] has as its system Staphylococcus aureus. As to the kind of experiment: Antibacterial activity against methicillin-resistant Staphylococcus aureus USA300 at 4 times MIC after 12 hrs by time-kill assay. It is filed as functional, organism-based.
Data set [25] concerns HRT-18 cell line. As to the kind of experiment: Cytotoxicity against human HRT18 cells up to 32 microg/ml after 6 hrs by MTS assay. The data set is classed as cell-based. Particulars: hrt-18, 6 h. A general note: Tetrazolium dyes change colour on reduction, which living cells bring about.
Data set [26] has as its system HRT-18 cell line. As to the kind of experiment: Cytotoxicity against human HRT18 cells at 64 microg/ml after 6 hrs by MTS assay. The data set is classed as cell-based. Particulars: hrt-18, 6 h.
Data set [27] is described as follows: Aqueous solubility of the compound in PBS after 2 hrs by turbidimetric method. The data set is classed as physicochemical.
Data set [28] is described as follows: Intrinsic clearance in human liver microsomes in absence of NADPH by LC-MS/MS analysis. It is filed as ADME, microsome. Particulars: read-out: CLH.
Data set [29] in a line: Half life in human liver microsomes in absence of NADPH by LC-MS/MS analysis. The data set is classed as ADME, microsome.
Data set [30] in a line: Apparent permeability of the compound across basolateral side to apical side in human Caco2 cells by LC-MS/MS analysis. The data set is classed as ADME, cell-based. Particulars: Caco-2.
The nature of data set [31]: Efflux ratio of permeability from basolateral to apical side over apical to basolateral side of human Caco2 cells by LC-MS/MS analysis. The data set is classed as ADME, cell-based. As to conditions: Caco-2. Background: Passage across Caco-2 layers is used to estimate intestinal permeability.

Molecules are shown by their SMILES. In brackets after ≈: the same amount, converted by molar mass. Activity calls are given as the source filed them.

As for `Cc1nc(-c2ccc(-c3ccccc3)cc2)sc1-c1ccnc(NN2CCN(C)CC2)n1`, the MIC in data set [1] worked out at 0.78 µg/mL (≈ 1.76 µM); in data set [2], 4 µg/mL (≈ 9.04 µM); in data set [3], 4 µg/mL (≈ 9.04 µM); in data set [4], 4 µg/mL (≈ 9.04 µM); in data set [5], 8 µg/mL (≈ 18.1 µM); in data set [6] it was 8 µg/mL (≈ 18.1 µM). The MIC in data set [7] was 8 µg/mL (≈ 18.1 µM); in [8], more than 64 µg/mL; in data set [9], more than 64 µg/mL; in data set [19], 4 µg/mL; in data set [20], 4 to 8 µg/mL. The MBC in data set [10] amounted to 8 µg/mL (≈ 18.1 µM); in data set [11], 4 µg/mL (≈ 9.04 µM); in data set [12] it was 4 µg/mL (≈ 9.04 µM); in [13] it was 8 µg/mL (≈ 18.1 µM); in [14], 8 µg/mL (≈ 18.1 µM); in data set [15] it was 8 µg/mL (≈ 18.1 µM). The “fold change (FC)” value in data set [16] is 128. In addition, the Activity in data set [17] was 46%; in data set [18], “Non-Toxic”. Moreover, in data set [21], the “fractional inhibitory concentration index (FICI)” value was 0.51 - 0.56. Besides, the selectivity ratio in data set [22] amounted to 16.
Consider `CN[C@H](CC(C)C)C(=O)N[C@H]1C(=O)N[C@@H](CC(N)=O)C(=O)N[C@H]2C(=O)N[C@H]3C(=O)N[C@H](C(=O)N[C@H](C(=O)O)c4cc(O)cc(O)c4-c4cc3ccc4O)[C@H](O)c3ccc(c(Cl)c3)Oc3cc2cc(c3O[C@@H]2O[C@H](CO)[C@@H](O)[C@H](O)[C@H]2O[C@H]2C[C@](C)(N)[C@H](O)[C@H](C)O2)Oc2ccc(cc2Cl)[C@H]1O` [VANCOMYCIN], for which the MIC is 1.56 µg/mL (≈ 1.08 µM) in data set [1]; 128 to 512 µg/mL (≈ 88.3 to 353 µM) in [5]; more than 512 µg/mL in data set [6]; 16 µg/mL (≈ 11 µM) in [7]; more than 64 µg/mL in data set [8]. For the same compound, the MBC in data set [10] is 1 µg/mL (≈ 0.69 µM); in [11] it was 1 µg/mL (≈ 0.69 µM); in data set [12], 1 µg/mL (≈ 0.69 µM); in data set [13], 512 µg/mL (≈ 353 µM); in [14], more than 512 µg/mL; in [15] it was 256 µg/mL (≈ 177 µM). In data set [23], the Time stood at 24 h.
For the compound `Cc1nc(-c2ccc(-c3ccccc3)cc2)sc1-c1ccnc(NC(=N)N2CCOCC2)n1`, the minimal inhibitory concentration (MIC) in [1] was 0.78 µg/mL (≈ 1.71 µM); in data set [2] it was 8 µg/mL (≈ 17.5 µM); in data set [3], 8 µg/mL (≈ 17.5 µM); in [4], 16 µg/mL (≈ 35 µM); in data set [5], 32 µg/mL (≈ 70.1 µM); in data set [6], 32 µg/mL (≈ 70.1 µM). In addition, the MIC is 64 µg/mL (≈ 140 µM) in [7], 8 µg/mL (≈ 17.5 µM) in [8] and more than 64 µg/mL in data set [9]. The MBC in data set [10] came out at 32 µg/mL (≈ 70.1 µM); in [11] it was 16 µg/mL (≈ 35 µM); in data set [12], 16 µg/mL (≈ 35 µM); in data set [13] it was 64 µg/mL (≈ 140 µM); in [14], 64 µg/mL (≈ 140 µM); in data set [15] it was 64 µg/mL (≈ 140 µM). Moreover, the result in data set [24] was inactive. For the same compound, the Activity result is on record as “Non-Toxic” in [25] and “Toxic” in data set [26].
As to `Cc1nc(-c2ccc(-c3ccccc3)cc2)sc1-c1ccnc(NC(=N)N)n1`, the MIC in data set [1] stood at 1.56 µg/mL (≈ 4.04 µM). For the same compound, in [27], the solubility (kinetic) at 2 h came out at 2.2 µM (≈ 0.85 µg/mL).
Consider `CCCCc1ccc(-c2nc(C)c(/C(C)=N/NC(=N)N)s2)cc1`, for which the microsomal CLint in data set [28] is less than 9.6 µL/min/mg. Further, in [1], the MIC was 4.7 to 4.8 µg/mL (≈ 14.3 to 14.6 µM). Further, in data set [29], the half-life is more than 4 h. Further, the Papp B→A in data set [30] turned out to be 1.2 ×10⁻⁶ cm/s. Moreover, the efflux ratio in data set [31] was more than 2.

By MIC is commonly meant the smallest concentration in the dilution series that meets the test's criterion for growth inhibition. For orientation: kinetic solubility means the concentration staying in solution when a stock, usually in DMSO, is diluted into the medium. By half-life is commonly meant the time needed for the level to fall by half in the phase considered. For orientation: Papp B→A means the apparent permeability from the basolateral to the apical side of a cell layer. The efflux ratio is a quotient of directional permeabilities that is used to spot active efflux.
